Where two headings read alike, the source gives them in different places.
Assays:
Test in all cases: Thermal stability shift assay
Assay type in all cases: binding
[1] = target: CK2a1 (Homo sapiens, UniProt P68400); conditions: read-out: Tm shift CK2a1
How it was run: (§1)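 Each value reflects thermal unfolding of 2 μM protein with 10 μM inhibitor, detected by SyproOrange (1:1000 dilution) fluorescence in 10 mM HEPES pH 7.5, 500 mM NaCl.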

[2] = target: CaMK2a (Homo sapiens, UniProt Q9UQM7); conditions: read-out: Tm shift CaMK2a
CaMK2a, sequence (Q9UQM7 whole entry): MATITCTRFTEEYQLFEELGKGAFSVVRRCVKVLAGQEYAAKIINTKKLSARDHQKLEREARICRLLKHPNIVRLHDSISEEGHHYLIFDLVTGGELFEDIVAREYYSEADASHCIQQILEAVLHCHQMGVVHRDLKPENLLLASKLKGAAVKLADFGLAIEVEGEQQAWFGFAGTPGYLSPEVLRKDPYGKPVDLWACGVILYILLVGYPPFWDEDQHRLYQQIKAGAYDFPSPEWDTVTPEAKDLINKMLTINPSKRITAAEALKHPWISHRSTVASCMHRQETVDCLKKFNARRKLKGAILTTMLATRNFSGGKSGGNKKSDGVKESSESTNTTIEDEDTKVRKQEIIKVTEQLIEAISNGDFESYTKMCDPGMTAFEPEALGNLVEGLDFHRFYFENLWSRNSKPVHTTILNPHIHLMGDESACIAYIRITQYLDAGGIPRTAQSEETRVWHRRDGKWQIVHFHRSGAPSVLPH
How it was run: as §1

[3] = target: T1, DMPK1 (Homo sapiens, UniProt Q09013); conditions: read-out: Tm shift DMPK1
T1 construct: purchased in-house (SGC Oxford thermal shift panel)
T1 sequence (Q09013 1-629): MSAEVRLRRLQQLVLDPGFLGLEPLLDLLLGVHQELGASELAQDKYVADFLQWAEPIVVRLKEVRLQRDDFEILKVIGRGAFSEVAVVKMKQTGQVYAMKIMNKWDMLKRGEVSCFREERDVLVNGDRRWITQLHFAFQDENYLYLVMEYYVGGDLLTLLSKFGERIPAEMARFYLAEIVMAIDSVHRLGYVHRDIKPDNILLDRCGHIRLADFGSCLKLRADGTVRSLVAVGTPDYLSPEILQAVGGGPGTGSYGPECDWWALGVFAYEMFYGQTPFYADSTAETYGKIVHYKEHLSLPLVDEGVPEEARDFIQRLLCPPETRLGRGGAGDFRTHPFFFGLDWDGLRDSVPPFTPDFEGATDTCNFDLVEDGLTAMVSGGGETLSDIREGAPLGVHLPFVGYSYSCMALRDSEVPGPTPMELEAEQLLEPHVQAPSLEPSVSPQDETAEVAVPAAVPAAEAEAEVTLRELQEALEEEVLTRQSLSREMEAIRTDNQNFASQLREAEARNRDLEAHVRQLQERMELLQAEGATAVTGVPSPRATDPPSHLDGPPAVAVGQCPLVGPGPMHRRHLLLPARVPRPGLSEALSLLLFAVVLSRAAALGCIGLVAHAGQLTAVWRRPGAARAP
How it was run: as §1

[4] = target: T2, DRAK1 (Homo sapiens, UniProt Q9UEE5); conditions: read-out: Tm shift DRAK1
T2 construct: purchased in-house (SGC Oxford thermal shift panel)
T2 sequence (Q9UEE5 1-414): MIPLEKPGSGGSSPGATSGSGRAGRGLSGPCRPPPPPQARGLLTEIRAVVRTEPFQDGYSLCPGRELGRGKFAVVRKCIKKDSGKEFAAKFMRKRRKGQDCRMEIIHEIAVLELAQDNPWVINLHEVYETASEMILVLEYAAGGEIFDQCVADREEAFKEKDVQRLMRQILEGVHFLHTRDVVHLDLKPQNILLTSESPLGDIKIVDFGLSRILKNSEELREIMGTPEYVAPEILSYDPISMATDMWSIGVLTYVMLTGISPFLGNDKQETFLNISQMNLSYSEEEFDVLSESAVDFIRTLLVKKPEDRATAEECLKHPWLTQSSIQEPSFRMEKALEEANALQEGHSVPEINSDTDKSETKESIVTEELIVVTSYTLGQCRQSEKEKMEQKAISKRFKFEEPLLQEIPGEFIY
How it was run: as §1

[5] = target: T3, JNK2 (Homo sapiens, UniProt P45984); conditions: read-out: Tm shift JNK2
T3 construct: purchased in-house (SGC Oxford thermal shift panel)
T3 sequence (P45984 whole entry): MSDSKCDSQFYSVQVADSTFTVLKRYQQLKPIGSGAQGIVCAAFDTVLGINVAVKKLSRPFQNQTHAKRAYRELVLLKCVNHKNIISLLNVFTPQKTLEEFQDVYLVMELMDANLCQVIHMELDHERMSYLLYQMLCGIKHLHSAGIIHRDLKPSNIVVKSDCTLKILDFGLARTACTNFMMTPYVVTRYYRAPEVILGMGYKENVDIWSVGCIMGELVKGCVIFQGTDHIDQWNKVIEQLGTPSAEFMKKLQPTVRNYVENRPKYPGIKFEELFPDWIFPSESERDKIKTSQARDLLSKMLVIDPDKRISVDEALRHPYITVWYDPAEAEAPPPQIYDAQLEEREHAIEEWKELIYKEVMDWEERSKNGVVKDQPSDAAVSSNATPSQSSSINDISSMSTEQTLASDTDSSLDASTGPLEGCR
How it was run: as §1

[6] = target: T4, MST2 (Homo sapiens, UniProt Q13188); conditions: read-out: Tm shift MST2
T4 construct: purchased in-house (SGC Oxford thermal shift panel)
T4 sequence (Q13188 1-491): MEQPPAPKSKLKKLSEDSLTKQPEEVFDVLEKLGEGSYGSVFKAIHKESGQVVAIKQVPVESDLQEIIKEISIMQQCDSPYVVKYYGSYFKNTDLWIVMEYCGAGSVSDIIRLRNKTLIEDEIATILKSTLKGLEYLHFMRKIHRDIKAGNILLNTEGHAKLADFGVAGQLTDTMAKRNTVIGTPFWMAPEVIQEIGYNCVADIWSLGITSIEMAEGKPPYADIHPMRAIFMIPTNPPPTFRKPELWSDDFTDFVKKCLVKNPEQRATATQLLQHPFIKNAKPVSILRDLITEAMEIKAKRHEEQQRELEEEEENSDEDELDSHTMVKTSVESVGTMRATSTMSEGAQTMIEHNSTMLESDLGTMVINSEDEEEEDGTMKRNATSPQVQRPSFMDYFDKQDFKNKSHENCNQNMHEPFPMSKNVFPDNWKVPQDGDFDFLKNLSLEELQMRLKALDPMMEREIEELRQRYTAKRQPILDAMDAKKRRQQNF
How it was run: as §1

[7] = target: T5, NDR1 (Homo sapiens, UniProt Q15208); conditions: read-out: Tm shift NDR1
T5 construct: purchased in-house (SGC Oxford thermal shift panel)
T5 sequence (Q15208 whole entry): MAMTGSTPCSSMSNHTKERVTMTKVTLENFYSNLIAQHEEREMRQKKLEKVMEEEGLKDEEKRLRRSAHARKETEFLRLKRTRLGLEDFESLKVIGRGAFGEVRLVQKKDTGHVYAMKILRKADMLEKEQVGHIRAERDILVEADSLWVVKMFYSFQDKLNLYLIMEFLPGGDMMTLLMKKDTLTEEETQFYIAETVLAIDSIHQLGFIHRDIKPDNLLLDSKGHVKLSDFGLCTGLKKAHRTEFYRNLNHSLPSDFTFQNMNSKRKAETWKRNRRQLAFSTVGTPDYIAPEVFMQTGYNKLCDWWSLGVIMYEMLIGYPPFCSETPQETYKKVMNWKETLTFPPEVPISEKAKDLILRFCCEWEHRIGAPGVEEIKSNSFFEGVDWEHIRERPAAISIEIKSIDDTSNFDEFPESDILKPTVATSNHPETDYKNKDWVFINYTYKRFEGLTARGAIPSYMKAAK
How it was run: as §1

[8] = target: T6, OSR1 (Homo sapiens, UniProt O95747); conditions: read-out: Tm shift OSR1
T6 construct: purchased in-house (SGC Oxford thermal shift panel)
T6 sequence (O95747 whole entry): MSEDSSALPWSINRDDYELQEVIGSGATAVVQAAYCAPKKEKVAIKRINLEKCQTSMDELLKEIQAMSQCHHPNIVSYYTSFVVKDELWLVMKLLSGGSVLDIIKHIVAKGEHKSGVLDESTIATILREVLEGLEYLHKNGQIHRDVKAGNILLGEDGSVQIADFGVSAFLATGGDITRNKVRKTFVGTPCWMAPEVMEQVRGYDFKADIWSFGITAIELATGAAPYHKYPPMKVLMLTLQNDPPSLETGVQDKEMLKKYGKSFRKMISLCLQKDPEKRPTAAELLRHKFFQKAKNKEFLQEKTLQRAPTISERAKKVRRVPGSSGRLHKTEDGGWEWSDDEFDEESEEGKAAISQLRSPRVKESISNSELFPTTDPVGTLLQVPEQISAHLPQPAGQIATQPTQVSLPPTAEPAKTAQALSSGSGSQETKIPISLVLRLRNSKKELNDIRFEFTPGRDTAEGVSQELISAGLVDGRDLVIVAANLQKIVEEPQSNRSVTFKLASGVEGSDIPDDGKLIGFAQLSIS
How it was run: as §1

[9] = target: T7, PKG1 (Homo sapiens, UniProt Q13976); conditions: read-out: Tm shift PKG1
T7 sequence (Q13976 1-671): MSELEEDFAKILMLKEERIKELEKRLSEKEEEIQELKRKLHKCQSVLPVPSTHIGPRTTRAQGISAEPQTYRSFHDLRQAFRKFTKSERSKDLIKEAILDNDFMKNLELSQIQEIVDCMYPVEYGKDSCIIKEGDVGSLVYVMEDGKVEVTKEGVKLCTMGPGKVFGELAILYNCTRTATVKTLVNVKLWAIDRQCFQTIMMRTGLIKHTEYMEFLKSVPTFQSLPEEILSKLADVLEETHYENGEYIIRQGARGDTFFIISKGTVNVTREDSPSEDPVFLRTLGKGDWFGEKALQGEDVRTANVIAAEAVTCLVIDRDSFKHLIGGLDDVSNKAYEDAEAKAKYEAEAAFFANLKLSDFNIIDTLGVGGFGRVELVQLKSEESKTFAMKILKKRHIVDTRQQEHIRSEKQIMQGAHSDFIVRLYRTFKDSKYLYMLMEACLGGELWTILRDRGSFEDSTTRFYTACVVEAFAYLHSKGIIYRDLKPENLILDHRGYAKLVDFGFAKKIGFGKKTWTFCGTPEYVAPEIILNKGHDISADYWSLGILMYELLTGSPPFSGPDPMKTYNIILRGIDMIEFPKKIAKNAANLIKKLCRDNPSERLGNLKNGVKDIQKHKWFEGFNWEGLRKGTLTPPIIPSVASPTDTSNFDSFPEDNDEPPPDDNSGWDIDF
How it was run: as §1

[10] = target: ZAK (Homo sapiens, UniProt Q9NYL2); conditions: read-out: Tm shift ZAK
ZAK, sequence (Q9NYL2 whole entry): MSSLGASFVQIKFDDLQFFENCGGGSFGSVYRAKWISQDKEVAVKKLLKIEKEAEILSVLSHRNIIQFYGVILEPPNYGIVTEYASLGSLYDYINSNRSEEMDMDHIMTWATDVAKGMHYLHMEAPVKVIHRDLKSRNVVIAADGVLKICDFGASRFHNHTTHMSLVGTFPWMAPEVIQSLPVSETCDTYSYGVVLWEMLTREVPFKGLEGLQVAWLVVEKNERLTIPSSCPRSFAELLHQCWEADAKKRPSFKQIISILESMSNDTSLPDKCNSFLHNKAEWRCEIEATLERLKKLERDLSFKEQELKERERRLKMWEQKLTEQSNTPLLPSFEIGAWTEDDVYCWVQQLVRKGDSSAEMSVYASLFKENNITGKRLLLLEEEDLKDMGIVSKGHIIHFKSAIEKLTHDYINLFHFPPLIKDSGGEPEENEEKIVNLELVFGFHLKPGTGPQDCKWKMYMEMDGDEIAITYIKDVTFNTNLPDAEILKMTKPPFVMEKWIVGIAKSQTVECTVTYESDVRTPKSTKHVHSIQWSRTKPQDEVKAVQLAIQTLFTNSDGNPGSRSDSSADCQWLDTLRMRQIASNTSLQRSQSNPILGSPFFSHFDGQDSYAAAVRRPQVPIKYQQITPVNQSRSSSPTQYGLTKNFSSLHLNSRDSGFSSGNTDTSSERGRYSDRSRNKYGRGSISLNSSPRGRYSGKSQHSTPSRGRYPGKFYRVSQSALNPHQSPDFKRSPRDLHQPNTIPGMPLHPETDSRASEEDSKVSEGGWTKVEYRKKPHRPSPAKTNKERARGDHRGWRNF
How it was run: as §1

[11] = target: ZC2/TNIK (Homo sapiens, UniProt Q9UKE5); conditions: read-out: Tm shift ZC2/TNIK
ZC2/TNIK, sequence (Q9UKE5 whole entry): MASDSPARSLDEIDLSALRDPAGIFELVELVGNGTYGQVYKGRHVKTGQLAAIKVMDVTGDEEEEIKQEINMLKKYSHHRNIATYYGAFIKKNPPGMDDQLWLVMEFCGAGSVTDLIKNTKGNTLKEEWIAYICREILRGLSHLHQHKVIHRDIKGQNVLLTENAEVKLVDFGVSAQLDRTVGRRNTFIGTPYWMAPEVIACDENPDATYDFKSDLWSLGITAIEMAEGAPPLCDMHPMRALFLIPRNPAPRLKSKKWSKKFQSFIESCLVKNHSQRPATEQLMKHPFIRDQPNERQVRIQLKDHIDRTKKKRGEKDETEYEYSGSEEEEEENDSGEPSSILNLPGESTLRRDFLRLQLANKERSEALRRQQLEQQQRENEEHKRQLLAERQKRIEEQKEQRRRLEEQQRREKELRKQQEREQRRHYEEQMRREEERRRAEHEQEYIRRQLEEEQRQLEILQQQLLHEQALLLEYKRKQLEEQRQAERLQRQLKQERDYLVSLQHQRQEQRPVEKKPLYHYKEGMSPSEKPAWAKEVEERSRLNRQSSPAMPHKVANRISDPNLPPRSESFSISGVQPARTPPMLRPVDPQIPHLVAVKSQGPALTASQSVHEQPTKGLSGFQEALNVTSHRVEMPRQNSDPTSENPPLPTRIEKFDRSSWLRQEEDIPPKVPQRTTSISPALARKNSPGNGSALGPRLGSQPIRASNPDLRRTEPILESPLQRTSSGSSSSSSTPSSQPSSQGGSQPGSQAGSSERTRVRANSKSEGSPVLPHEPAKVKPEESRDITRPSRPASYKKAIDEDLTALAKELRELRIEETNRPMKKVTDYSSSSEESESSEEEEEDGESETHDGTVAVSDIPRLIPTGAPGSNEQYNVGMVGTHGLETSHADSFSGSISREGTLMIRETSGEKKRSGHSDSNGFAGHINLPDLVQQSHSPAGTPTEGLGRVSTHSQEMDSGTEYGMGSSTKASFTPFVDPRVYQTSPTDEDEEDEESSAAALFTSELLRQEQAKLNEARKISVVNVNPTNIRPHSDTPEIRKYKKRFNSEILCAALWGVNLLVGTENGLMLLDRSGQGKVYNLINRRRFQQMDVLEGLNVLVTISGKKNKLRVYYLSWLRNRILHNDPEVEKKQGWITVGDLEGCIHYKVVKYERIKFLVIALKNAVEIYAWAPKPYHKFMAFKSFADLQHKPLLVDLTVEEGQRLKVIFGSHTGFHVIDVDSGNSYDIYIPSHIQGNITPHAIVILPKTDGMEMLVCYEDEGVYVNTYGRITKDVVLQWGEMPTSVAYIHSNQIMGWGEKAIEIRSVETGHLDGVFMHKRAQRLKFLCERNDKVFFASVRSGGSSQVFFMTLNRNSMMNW
How it was run: as §1

CK2a1, sequence (P68400 whole entry): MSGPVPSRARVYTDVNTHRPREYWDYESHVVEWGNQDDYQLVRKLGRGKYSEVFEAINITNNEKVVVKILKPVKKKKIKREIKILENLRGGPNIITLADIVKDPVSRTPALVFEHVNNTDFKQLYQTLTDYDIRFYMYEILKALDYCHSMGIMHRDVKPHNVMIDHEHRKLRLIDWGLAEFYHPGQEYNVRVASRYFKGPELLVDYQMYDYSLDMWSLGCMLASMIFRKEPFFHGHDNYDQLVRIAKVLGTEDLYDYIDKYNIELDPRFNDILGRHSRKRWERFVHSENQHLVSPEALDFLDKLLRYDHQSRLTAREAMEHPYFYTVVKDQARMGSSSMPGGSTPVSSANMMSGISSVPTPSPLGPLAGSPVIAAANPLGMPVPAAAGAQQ

Row | SMILES | ΔTm at 10 µM [1] [°C] | ΔTm at 10 µM [2] [°C] | ΔTm at 10 µM [3] [°C] | ΔTm at 10 µM [4] [°C] | ΔTm at 10 µM [5] [°C] | ΔTm at 10 µM [6] [°C] | ΔTm at 10 µM [7] [°C] | ΔTm at 10 µM [8] [°C] | ΔTm at 10 µM [9] [°C] | ΔTm at 10 µM [11] [°C] | ΔTm at 10 µM ([1]; inhibitor 10 μM) [°C] | ΔTm at 10 µM ([2]; inhibitor 10 μM) [°C] | ΔTm at 10 µM ([3]; inhibitor 10 μM) [°C] | ΔTm at 10 µM ([4]; inhibitor 10 μM) [°C] | ΔTm at 10 µM ([5]; inhibitor 10 μM) [°C] | ΔTm at 10 µM ([6]; inhibitor 10 μM) [°C] | ΔTm at 10 µM ([7]; inhibitor 10 μM) [°C] | ΔTm at 10 µM ([8]; inhibitor 10 μM) [°C] | ΔTm at 10 µM ([9]; inhibitor 10 μM) [°C] | ΔTm at 10 µM ([10]; inhibitor 10 μM) [°C] | other results
1 | CCOC(=O)c1c(/C(C#N)=C\N)c2ccc(Cl)c(Cl)c2n1C [KH-CB19, (E)-Ethyl 3-(2-Amino-1-Cyanovinyl)-6,7-Dichloro-1-Methyl-1H-Indole-2-Carboxylate] | 1.3 | 0.5 | -0.4 | 2.5 | -0.2 | 0.2 | 0.2 | 0.3 | 0.8 | 0.2 |  |  |  |  |  |  |  |  |  |  | ΔTm at 10 µM [10]: -0.3 °C
2 | CCOC(=O)c1c(C(C#N)=CN)c2ccc(Cl)c(Cl)c2n1C (mixture of isomers) [KH-CB20, (E/Z)-Ethyl 3-(2-Amino-1-Cyanovinyl)-6,7-Dichloro-1-Methyl-1H-Indole-2-Carboxylate] | 1.1 | 0.7 | -0.4 | 2.6 | 0.5 | 0.4 | 0.3 | 0.3 | 0.5 | -0.1 |  |  |  |  |  |  |  |  |  |  | ΔTm at 10 µM [10]: -0.1 °C
3 | NC1=NC(=O)/C(=C2\CCNC(=O)c3[nH]c(Br)cc32)N1 [Hymenialdisine, hymenialdisine, reference compound] |  |  |  |  |  |  |  |  |  | 3.4 | 0.8 | 0.4 | 0.2 | 14.8 | -0.1 | 3.9 | 1 | 0.5 | 1.4 | 1.7 | 
4 | CCOC(=O)c1c(C(C#N)=CN(C)C)c2ccc(Cl)c(Cl)c2n1C (mixture of isomers) [compound 2, (E/Z)-Ethyl 6,7-Dichloro-3-[1-Cyano-2-(Dimethylamino)Vinyl]-1-Methyl-1H-Indole-2-Carboxylate] |  |  |  |  |  |  |  |  |  |  | 1.4 | 1 | -0.3 | -0.2 | -0.2 | 0.3 | 0.4 | 0 | 0.3 | -0.4 | ΔTm at 10 µM ([11]; inhibitor 10 μM): 0.1 °C
5 | Cn1c2c(Cl)c(Cl)ccc2c2c(C#N)c[nH]c(=O)c21 [compound 3, 7,8-Dichloro-9-Methyl-1-Oxo-2,9-Dihydro-1H-Pyrido[3,4-b]Indole-4-Carbonitrile] |  |  |  |  |  |  |  |  |  |  | 1.3 | 0.5 | 0.9 | 1.7 | -0.5 | -0.5 | 0.7 | 0.3 | 0.6 | -0.2 | ΔTm at 10 µM ([11]; inhibitor 10 μM): 0 °C

Source: paper PMC3145970, “Specific CLK Inhibitors from a Novel Chemotype for Regulation of Alternative Splicing” (Chemistry & Biology, 2011)
